Results reported in US20240189278A1, “NOVEL COMPOUNDS AND METHODS FOR INCREASING KLOTHO GENE EXPRESSION” (Klotho Therapeutics, Inc., priority 2017, published 2024).

Test system: Klotho gene
Assay: Methylation analyses of Klotho gene (methylation-specific PCR)
Type: in vivo, mouse
Details: kidney of aged mice, 2 weeks treatment
Description: Animal study protocols. This example was performed according to the guide lines of the National Institute of Health on the care and use of laboratory animals and approved by the institutional Animal Care and Use Committee of University of Oklahoma Health Science Center. AU mice were housed in cages at room temperature (2S±PC) and were provided with Purina laboratory chow No 5001) and tap Water and lithium. 6 adult mice (12 months) and 20 old mice (24-26 months) mice were next in this study. The old (aged) mice were randomly divided into three subgroups and each group had 6 or 7 mice. One subgroup received compound H (10 mg/kg/day1, IP, Enamine LLC, Monmouth Jct., NJ) and one group received an equal volume of DMSO (dimethyl sulfoxide, 5%) and served as a control. The third group received no treatment Blood pressure was measured before and after treatment with the active agent at 1 week and 2 week. Pulse wave velocity (PWV) was measured after 2 weeks treatment with active agent all animals were sacrificed and perfused transcardially with PBS under deep anesthesia (ketamine xylazine, 90/10 mg, IP). […]
Methylation Analyses of Klotho Gene: The methylation status of CpG islands of mice Klotho gene was analyzed using methylation-specific PCR (MSP) and bisulfite sequencing. […] The methylation index was calculated as (band intensity of MSP with methylated primers)/(band intensity of inputted control). […]

## O=C(Nc1ccccc1Cl)c1c[nH]c2ccccc12 [active agent, N-(2-chlorophenyl)-Ul-indde-3-carboxamide]
  Methylation of Klotho gene: inhibited
